According to US10370391B2, “Hydrogen peroxide-activable, anti-oxidant compounds and methods using same” (Beth Israel Deaconess Medical Center, Inc., priority 2014, dated 2019):

How the values were obtained:
[1] = Activation of BRAP by H2O2, UV spectroscopy (absorbance at 273 nm); assay type: physicochemical; conditions: after 90 minutes of treatment with H2O2
Experimental: The activation of BRAP by H2O2 was also studied using UV spectroscopy. BRAP was mixed with H2O2 and the change in UV absorbance was monitored over time.
BRAP was dissolved in PBS (pH 7.4) at a concentration of 1 mM and was incubated at 37° C. in the presence of 100 μM of H2O2. The concentration of HBA generated from BRAP was measured using a UV spectrometer at appropriate time points.

[2] = tested on: nitric oxide production in LPS-treated cells; assay: Nitric oxide generation in LPS-treated cells (Griess reaction); assay type: cell-based; conditions: time and dose-dependent
Experimental: FIG. 4, comprising FIGS. 4A-4F, is a set of graphs, bar graphs and images illustrating anti-oxidant and anti-inflammatory effects of BRAP in vitro. […] The generation of ROS was monitored by flow cytometry as an indicator of DCF fluorescence. Fluorescence was analyzed in 10,000 cells with excitation at 480 nm and emission at 530 nm. FIG. 4C: Protective effect of BRAP on H2O2— stimulated adult rat cardiomyocytes. V=vehicle, *<0.05 vs. V+H2O2 (n=4). […] (n=4/group).
Nitric oxide is one of major sources of oxidative stress and a well-known pro-inflammatory mediator in the pathogenesis of inflammation (Lundberg, et al., 1997, Nature Medicine 3:30). The effects of BRAP on the generation of nitric oxide in LPS-treated cells were studied using a colorimetric assay based on the Griess reaction.

cardiac I/R injury = assay: Mouse model of cardiac I/R injury; assay type: in vivo
Experimental: The beneficial effects of BRAP were further investigated using a mouse model of cardiac I/R injury in vivo. After 45 minutes of ischemia, BRAP (1.5 mg/kg) or vehicle was administered i.p. at the time of reperfusion, and then daily (1.5 mg/kg/day) for 2 weeks. For cardiac functional analysis, pressure-volume (PV) loop measurement and echocardiography were performed at 2 weeks after I/R surgery.
Studies were then performed to determine whether the benefits of BRAP after I/R were associated with attenuation of oxidative stress, inflammation, and apoptosis. These mechanistic analyses were performed in heart tissues 24 hours after cardiac I/R injury. […] BRAP administration decreased TNF-α and MCP-1 expressions compared with vehicle-treated mice.
Cardiac I/R surgery was performed in 12 week-old male mice as described in Choudhury, et al., 2011, Basic Res Cardiol 106:397. Briefly, mice were anaesthetized and placed on a rodent ventilator (model 687, Harvard Respirator). After thoracotomy, the left anterior descending artery (LAD) artery was identified and ligated with a 7-0 silk suture tied around a specialized 30 G-catheter. The animal remained under anesthesia and ventilation for 45 min of ischemia, after which reperfusion was achieved by cutting the suture and re-establishing arterial perfusion. Sham operated mice underwent the same procedure without LAD occlusion.
Cardiac function was evaluated using the pressure-volume loop measurement and echocardiography 2 weeks after I/R as described in Lee, et al., 2013, Sci Rep 3:2233. Pressure-volume parameters were measured after isoflurane (2%) inhalant anesthesia using a 1.4 Fr. micro-tip pressure-volume catheter (Scisense Inc, Ontario, Canada) inserted into the right common carotid artery. The catheter was gently advanced into the left ventricle to obtain LV hemodynamic parameters. Data was recorded using a Powerlab system (ADInstruments, Colorado Springs, Colo.). Beat by beat pressure-volume parameters including heart rate (HR), stroke volume (SV), stroke work (SW) and cardiac output (CO) were measured and analyzed using CardioSoft Pro software (CardioSoft, Houston, Tex.). Transthoracic echocardiography was performed using a Vevo2100 ultra-high frequency small animal imaging system with MS400 transducer (18-38 MHz) (Visualsonics, Toronto, Canada).
For liver apoptosis assay, terminal deoxynucleotidyl transferase dUTP nick end labeling (TUNEL) staining was performed using a DeadEnd™ Fluorometric TUNEL kit (Promega, Madison, Wis.). Tissue sections were stained for nuclei (4′,6-diamidino-2-phenylindole (DAPI) staining) and apoptotic nuclei (TUNEL staining) and analyzed using a confocal laser scanning microscope. For heart tissues, TUNEL staining was performed using in situ cell death detection Kit, fluorescein (Roche Applied Science, Indianapolis, Ind.). To distinguish cardiomyocyte from non-cardiomyocyte nuclei, triple stain for nuclei (DAPI staining), apoptotic nuclei (TUNEL staining), and cardiomyocytes (α-Actinin staining) was used, and the stained sections were analyzed using confocal microscopy. A minimum of ˜10 high power fields with ˜2000 nuclei/field were counted for each sample.
The activity of caspase-3 was determined with colorimetric assay kit (R&D Systems, Minneapolis, Minn.) as described in Choudhury, et al., 2011, Basic Res Cardiol 106:397; Bae, et al., 2010, Am J Physiol Heart Circ Physiol 299:H1374. Briefly, protein samples were added to substrates of Acetyl-Asp-Glu-Val-Asp-p-nitroanilide. The enzyme-catalyzed release of p-nitroanilide was measured at 405 nm. For PARP activity assay, activity was measured at 450 nm by incorporation of biotinylated poly (ADP-ribose) onto histone-coated proteins in plate using colorimetric assay kit (R&D Systems, Minneapolis, Minn., USA).
Heart tissues were collected for molecular analyses were performed in Bae, et al., 2010, Am J Physiol Heart Circ Physiol 299:H1374. […]

[3] = tested on: renal ischemia/reperfusion (I/R) injury; assay: Kidney I/R injury model in the mouse, oral BRAP; assay type: in vivo
Experimental: BRAP administered orally was tested in a kidney I/R injury model in the mouse. In this model, one of the mouse's kidney was subjected to ischemia for about 30 min, using a combination of unilateral clamping and contralateral nephrectomy. BRAP was administered orally to the mice at two time points: the night before the surgery, and immediately before the I/R surgery. The read-out markers after I/R comprised: creatinine levels 24 hours after reperfusion; tumor necrosis factor alpha (TNF-α) and monocyte chemo-attractant protein-1 (MCP-1) (both inflammatory markers); DHE staining (monitoring for ROS generation); and TUNEL staining (monitoring for apoptosis).

[4] = Water solubility of isolated BRAP; assay type: physicochemical; conditions: white powder as obtained
Source text: H2O2-activable anti-oxidant prodrug BRAP was synthesized by reacting (4-(hydroxymethyl)phenyl)boronic acid and 2-(hydroxymethyl)-2-methylpropane-1,3-diol at room temperature (FIG. 1A). BRAP was obtained as white water-soluble powder and its chemical structure was confirmed by ^1H NMR (FIG. 1B).

[5] = 1.5 mg/kg i.p. at reperfusion then daily for 2 weeks
[6] = 24 hours after I/R, compared with vehicle-treated mice
[7] = oral administration, 24 hours after reperfusion

water solubility [4]: water-soluble
SMILES: CC1(CO)COB(c2ccc(CO)cc2)OC1 [BRAP, (4-(5-(hydroxymethyl)-5-methyl-1,3,2-dioxaborinan-2-yl)phenyl)methanol]
change in UV absorbance (HBA generation) [1]: no further increase in UV absorbance | inhibition of nitric oxide production [2]: inhibitory effects | I/R-induced cardiac dysfunction by PV loop analysis (CO, SW, EF) (cardiac I/R injury; [5]): significantly attenuated | I/R-induced cardiac dysfunction by echocardiography (FS) (cardiac I/R injury; [5]): significantly attenuated | TUNEL-positive cardiomyocytes (apoptosis) (cardiac I/R injury; 24 hours after I/R): effectively inhibited | caspase-3 activation in heart (cardiac I/R injury; 24 hours after I/R): effectively reduced | MCP-1 mRNA expression in heart (cardiac I/R injury; [6]): decreased | TNF-α mRNA expression in heart (cardiac I/R injury; [6]): decreased | DHE staining (ROS generation) in heart (cardiac I/R injury; heart tissue 24 hours after I/R): significantly decreased | renal function (creatinine levels) ([3]; daily oral administration 8 mg/kg, after 4 days): significant improvement | DHE staining (ROS generation) in kidney ([3]; oral administration): significantly reduced | TUNEL staining (apoptosis) in kidney ([3]; oral administration): significantly reduced | activation of MCP-1 in kidney [3, 7]: significantly attenuated | activation of TNF-α in kidney [3, 7]: significantly attenuated
